Key:
Assay in all cases: Test E pre-/postemergence plant response
Format in all cases: in vivo
Settings in all cases: scale 0 to 100
[1] = test system: johnsongrass (Sorghum halepense)
How it was run: (§1)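 In this greenhouse assay, sown seeds received preemergence treatment and young plants of 2 to 18 cm (1- to 4-leaf stage) received postemergence treatment, both with compound in a non-phytotoxic solvent and surfactant vehicle. Effects were rated visually 14 to 21 days later on a 0–100 control scale.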

[2] = test system: annual bluegrass (Poa annua)
How it was run: as §1

[3] = test system: purple nutsedge (Cyperus rotundus)
How it was run: as §1

[4] = test system: guineagrass (Panicum maximum)
How it was run: as §1

[5] = test system: common mallow (Malva sylvestris)
How it was run: as §1

[6] = test system: bermudagrass (Cynodon dactylon)
How it was run: as §1

[7] = test system: surinam grass (Brachiaria decumbens)
How it was run: as §1

[8] = test system: goosegrass (Eleusine indica)
How it was run: as §1

[9] = test system: barnyardgrass (Echinochloa crus-galli)
How it was run: as §1

[10] = test system: pitted morningglory (Ipomoea lacunosa)
How it was run: as §1

[11] = test system: itchgrass (Rottboellia cochinchinensis)
How it was run: as §1

[12] = test system: green foxtail (Setaria viridis)
How it was run: as §1

With `COC(=O)Oc1cnn(C)c(=O)c1-n1nc(-c2ccc(Cl)cc2)cc1C` [Compound 33] the “Plant response rating, Johnsongrass” value ([1]; 16 g ai/ha, Preemergence) was 75, the “Plant response rating, Johnsongrass” value ([1]; 31 g ai/ha, Preemergence) was 85 and the “Plant response rating, Johnsongrass” value ([1]; 62 g ai/ha, Preemergence) was 98. The “Plant response rating, Johnsongrass” value ([1]; Postemergence, 8 g ai/ha) was 50, the “Plant response rating, Johnsongrass” value ([1]; Postemergence, 16 g ai/ha) was 75 and the “Plant response rating, Johnsongrass” value ([1]; Postemergence, 31 g ai/ha) was 98. For the same compound, the “Plant response rating, Johnsongrass” value ([1]; Postemergence, 62 g ai/ha) was 98, the “Plant response rating, Bluegrass” value ([2]; 8 g ai/ha, Preemergence) was 0 and the “Plant response rating, Bluegrass” value ([2]; 16 g ai/ha, Preemergence) was 0. For the same compound, the “Plant response rating, Bluegrass” value ([2]; 31 g ai/ha, Preemergence) was 0, the “Plant response rating, Bluegrass” value ([2]; 62 g ai/ha, Preemergence) was 0 and the “Plant response rating, Bluegrass” value ([2]; Postemergence, 8 g ai/ha) was 0. For the same compound, the “Plant response rating, Bluegrass” value ([2]; Postemergence, 16 g ai/ha) was 0, the “Plant response rating, Bluegrass” value ([2]; Postemergence, 31 g ai/ha) was 5 and the “Plant response rating, Bluegrass” value ([2]; Postemergence, 62 g ai/ha) was 5. The “Plant response rating, Nutsedge, Purple” value ([3]; 16 g ai/ha, Preemergence) was 0, the “Plant response rating, Nutsedge, Purple” value ([3]; 31 g ai/ha, Preemergence) was 0 and the “Plant response rating, Nutsedge, Purple” value ([3]; 62 g ai/ha, Preemergence) was 0. The “Plant response rating, Nutsedge, Purple” value ([3]; Postemergence, 8 g ai/ha) was 0, the “Plant response rating, Nutsedge, Purple” value ([3]; Postemergence, 16 g ai/ha) was 0 and the “Plant response rating, Nutsedge, Purple” value ([3]; Postemergence, 31 g ai/ha) was 0. The “Plant response rating, Nutsedge, Purple” value ([3]; Postemergence, 62 g ai/ha) was 0, the “Plant response rating, Guineagrass” value ([4]; 16 g ai/ha, Preemergence) was 100 and the “Plant response rating, Guineagrass” value ([4]; 31 g ai/ha, Preemergence) was 100. For the same compound, the “Plant response rating, Guineagrass” value ([4]; 62 g ai/ha, Preemergence) was 100, the “Plant response rating, Guineagrass” value ([4]; Postemergence, 8 g ai/ha) was 80 and the “Plant response rating, Guineagrass” value ([4]; Postemergence, 16 g ai/ha) was 80. For the same compound, the “Plant response rating, Guineagrass” value ([4]; Postemergence, 31 g ai/ha) was 90, the “Plant response rating, Guineagrass” value ([4]; Postemergence, 62 g ai/ha) was 95 and the “Plant response rating, Mallow” value ([5]; 16 g ai/ha, Preemergence) was 0. The “Plant response rating, Mallow” value ([5]; 31 g ai/ha, Preemergence) was 0, the “Plant response rating, Mallow” value ([5]; 62 g ai/ha, Preemergence) was 0 and the “Plant response rating, Mallow” value ([5]; Postemergence, 8 g ai/ha) was 0. The “Plant response rating, Mallow” value ([5]; Postemergence, 16 g ai/ha) was 0, the “Plant response rating, Mallow” value ([5]; Postemergence, 31 g ai/ha) was 0 and the “Plant response rating, Mallow” value ([5]; Postemergence, 62 g ai/ha) was 0. The “Plant response rating, Bermudagrass” value ([6]; 8 g ai/ha, Preemergence) was 90, the “Plant response rating, Bermudagrass” value ([6]; 16 g ai/ha, Preemergence) was 90 and the “Plant response rating, Bermudagrass” value ([6]; 31 g ai/ha, Preemergence) was 98. For the same compound, the “Plant response rating, Bermudagrass” value ([6]; 62 g ai/ha, Preemergence) was 100, the “Plant response rating, Bermudagrass” value ([6]; Postemergence, 8 g ai/ha) was 70 and the “Plant response rating, Bermudagrass” value ([6]; Postemergence, 16 g ai/ha) was 80. For the same compound, the “Plant response rating, Bermudagrass” value ([6]; Postemergence, 31 g ai/ha) was 90, the “Plant response rating, Bermudagrass” value ([6]; Postemergence, 62 g ai/ha) was 95 and the “Plant response rating, Surinam Grass” value ([7]; 16 g ai/ha, Preemergence) was 98. The “Plant response rating, Surinam Grass” value ([7]; 31 g ai/ha, Preemergence) was 98, the “Plant response rating, Surinam Grass” value ([7]; 62 g ai/ha, Preemergence) was 100 and the “Plant response rating, Surinam Grass” value ([7]; Postemergence, 8 g ai/ha) was 75. For the same compound, the “Plant response rating, Surinam Grass” value ([7]; Postemergence, 16 g ai/ha) was 75, the “Plant response rating, Surinam Grass” value ([7]; Postemergence, 31 g ai/ha) was 100 and the “Plant response rating, Surinam Grass” value ([7]; Postemergence, 62 g ai/ha) was 100. The “Plant response rating, Goosegrass” value ([8]; 8 g ai/ha, Preemergence) was 75, the “Plant response rating, Goosegrass” value ([8]; 16 g ai/ha, Preemergence) was 98 and the “Plant response rating, Goosegrass” value ([8]; 31 g ai/ha, Preemergence) was 98. For the same compound, the “Plant response rating, Goosegrass” value ([8]; 62 g ai/ha, Preemergence) was 100, the “Plant response rating, Goosegrass” value ([8]; Postemergence, 8 g ai/ha) was 35 and the “Plant response rating, Goosegrass” value ([8]; Postemergence, 16 g ai/ha) was 35. For the same compound, the “Plant response rating, Goosegrass” value ([8]; Postemergence, 31 g ai/ha) was 75, the “Plant response rating, Goosegrass” value ([8]; Postemergence, 62 g ai/ha) was 75 and the “Plant response rating, Barnyardgrass” value ([9]; 8 g ai/ha, Preemergence) was 65. For the same compound, the “Plant response rating, Barnyardgrass” value ([9]; 16 g ai/ha, Preemergence) was 80, the “Plant response rating, Barnyardgrass” value ([9]; 31 g ai/ha, Preemergence) was 100 and the “Plant response rating, Barnyardgrass” value ([9]; 62 g ai/ha, Preemergence) was 100. For the same compound, the “Plant response rating, Barnyardgrass” value ([9]; Postemergence, 8 g ai/ha) was 95, the “Plant response rating, Barnyardgrass” value ([9]; Postemergence, 16 g ai/ha) was 100 and the “Plant response rating, Barnyardgrass” value ([9]; Postemergence, 31 g ai/ha) was 100. For the same compound, the “Plant response rating, Barnyardgrass” value ([9]; Postemergence, 62 g ai/ha) was 100, the “Plant response rating, Morningglory” value ([10]; 16 g ai/ha, Preemergence) was 0 and the “Plant response rating, Morningglory” value ([10]; 31 g ai/ha, Preemergence) was 0. For the same compound, the “Plant response rating, Morningglory” value ([10]; 62 g ai/ha, Preemergence) was 0, the “Plant response rating, Morningglory” value ([10]; Postemergence, 8 g ai/ha) was 0 and the “Plant response rating, Morningglory” value ([10]; Postemergence, 16 g ai/ha) was 0. The “Plant response rating, Morningglory” value ([10]; Postemergence, 31 g ai/ha) was 0, the “Plant response rating, Morningglory” value ([10]; Postemergence, 62 g ai/ha) was 0 and the “Plant response rating, Itchgrass” value ([11]; 16 g ai/ha, Preemergence) was 60. The “Plant response rating, Itchgrass” value ([11]; 31 g ai/ha, Preemergence) was 80, the “Plant response rating, Itchgrass” value ([11]; 62 g ai/ha, Preemergence) was 80 and the “Plant response rating, Itchgrass” value ([11]; Postemergence, 8 g ai/ha) was 40. The “Plant response rating, Itchgrass” value ([11]; Postemergence, 16 g ai/ha) was 65, the “Plant response rating, Itchgrass” value ([11]; Postemergence, 31 g ai/ha) was 70 and the “Plant response rating, Itchgrass” value ([11]; Postemergence, 62 g ai/ha) was 75. For the same compound, the “Plant response rating, Foxtail, Green” value ([12]; 8 g ai/ha, Preemergence) was 40, the “Plant response rating, Foxtail, Green” value ([12]; 16 g ai/ha, Preemergence) was 65 and the “Plant response rating, Foxtail, Green” value ([12]; 31 g ai/ha, Preemergence) was 100. The “Plant response rating, Foxtail, Green” value ([12]; 62 g ai/ha, Preemergence) was 100, the “Plant response rating, Foxtail, Green” value ([12]; Postemergence, 8 g ai/ha) was 60 and the “Plant response rating, Foxtail, Green” value ([12]; Postemergence, 16 g ai/ha) was 65. For the same compound, the “Plant response rating, Foxtail, Green” value ([12]; Postemergence, 31 g ai/ha) was 75 and the “Plant response rating, Foxtail, Green” value ([12]; Postemergence, 62 g ai/ha) was 95.

— US20100267561A1, “HERBICIDAL PYRIDAZINONE DERIVATIVES” (priority 2007, published 2010)
